Measured values: the supplement of paper PMC10307832

What was measured:
Assay in all cases: relative viability (nuclei count vs DMSO), 5 days (fraction); higher = more cells survive
EMC-BAC-2 = tested on: EMC-BAC-2
In short: (§1)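 Relative viability divides the nuclei count in treated wells by that in vehicle wells. Lung cancer cell lines were seeded in 1536-well plates, dosed by pin tool the next day, and fixed and stained after 5 days in one step with final 0.05% Triton X-100, 1% formaldehyde and 1 ug/ml Hoechst. Dosing was a single drug or a fixed anchor-drug dose plus five library-drug doses (not always all listed) in √10 steps, and values are medians of duplicate plates imaged at 4×.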

EKVX = tested on: EKVX
In short: as §1

NCI-H2126 = tested on: NCI-H2126
In short: as §1

NCI-H1755 = tested on: NCI-H1755
In short: as §1

LCLC-103H = tested on: LCLC-103H
In short: as §1

UMC-11 = tested on: UMC-11
In short: as §1

NCI-H1793 = tested on: NCI-H1793
In short: as §1

LC-2-ad = tested on: LC-2-ad
In short: as §1

NCI-H1651 = tested on: NCI-H1651
In short: as §1

NCI-H661 = tested on: NCI-H661
In short: as §1

NCI-H1648 = tested on: NCI-H1648
In short: as §1

NCI-H1395 = tested on: NCI-H1395
In short: as §1

RERF-LC-KJ = tested on: RERF-LC-KJ
In short: as §1

PC-14 = tested on: PC-14
In short: as §1

COR-L 105 = tested on: COR-L 105
In short: as §1

NCI-H2023 = tested on: NCI-H2023
In short: as §1

NCI-H2009 = tested on: NCI-H2009
In short: as §1

CAL-12T = tested on: CAL-12T
In short: as §1

H3255 = tested on: H3255
In short: as §1

SW 900 = tested on: SW 900
In short: as §1

NCI-H596 = tested on: NCI-H596
In short: as §1

NCI-H2087 = tested on: NCI-H2087
In short: as §1

SMILES: Oc1nc(-c2ccc(C(F)(F)F)cc2)nc2c1CSCC2 [XAV939] + CC(=O)Nc1cccc(-n2c(=O)n(C3CC3)c(=O)c3c(Nc4ccc(I)cc4F)n(C)c(=O)c(C)c32)c1 [Trametinib] (partner 0.02 µM)
- relative viability (EMC-BAC-2; first compound 0.08 µM): 0.972
- relative viability (EMC-BAC-2; first compound 0.253 µM): 0.875
- relative viability (EMC-BAC-2; first compound 0.8 µM): 0.78
- relative viability (EMC-BAC-2; first compound 2.53 µM): 0.671
- relative viability (EKVX; first compound 0.08 µM): 0.346
- relative viability (EKVX; first compound 0.253 µM): 0.317
- relative viability (EKVX; first compound 0.8 µM): 0.311
- relative viability (EKVX; first compound 2.53 µM): 0.245
- relative viability (NCI-H2126; first compound 0.08 µM): 0.458
- relative viability (NCI-H2126; first compound 0.253 µM): 0.44
- relative viability (NCI-H2126; first compound 0.8 µM): 0.478
- relative viability (NCI-H2126; first compound 2.53 µM): 0.392
- relative viability (NCI-H1755; first compound 0.08 µM): 0.719
- relative viability (NCI-H1755; first compound 0.253 µM): 0.64
- relative viability (NCI-H1755; first compound 0.8 µM): 0.661
- relative viability (NCI-H1755; first compound 2.53 µM): 0.692
- relative viability (LCLC-103H; first compound 0.08 µM): 0.704
- relative viability (LCLC-103H; first compound 0.253 µM): 0.641
- relative viability (LCLC-103H; first compound 0.8 µM): 0.672
- relative viability (LCLC-103H; first compound 2.53 µM): 0.676
- relative viability (UMC-11; first compound 0.08 µM): 0.692
- relative viability (UMC-11; first compound 0.253 µM): 0.703
- relative viability (UMC-11; first compound 0.8 µM): 0.879
- relative viability (UMC-11; first compound 2.53 µM): 0.632
- relative viability (NCI-H1793; first compound 0.08 µM): 0.576
- relative viability (NCI-H1793; first compound 0.253 µM): 0.381
- relative viability (NCI-H1793; first compound 0.8 µM): 0.381
- relative viability (NCI-H1793; first compound 2.53 µM): 0.353
- relative viability (LC-2-ad; first compound 0.08 µM): 0.932
- relative viability (LC-2-ad; first compound 0.253 µM): 0.899
- relative viability (LC-2-ad; first compound 0.8 µM): 0.922
- relative viability (LC-2-ad; first compound 2.53 µM): 0.79
- relative viability (NCI-H1651; first compound 0.08 µM): 0.821
- relative viability (NCI-H1651; first compound 0.253 µM): 0.724
- relative viability (NCI-H1651; first compound 0.8 µM): 0.825
- relative viability (NCI-H1651; first compound 2.53 µM): 0.816
- relative viability (NCI-H661; first compound 0.08 µM): 0.617
- relative viability (NCI-H661; first compound 0.253 µM): 0.538
- relative viability (NCI-H661; first compound 0.8 µM): 0.543
- relative viability (NCI-H661; first compound 2.53 µM): 0.568
- relative viability (NCI-H1648; first compound 0.253 µM): 0.438
- relative viability (NCI-H1648; first compound 0.8 µM): 0.606
- relative viability (NCI-H1648; first compound 2.53 µM): 0.361
- relative viability (NCI-H1395; first compound 0.08 µM): 1.02
- relative viability (NCI-H1395; first compound 0.253 µM): 0.974
- relative viability (NCI-H1395; first compound 0.8 µM): 1.11
- relative viability (NCI-H1395; first compound 2.53 µM): 0.944
- relative viability (RERF-LC-KJ; first compound 0.08 µM): 0.859
- relative viability (RERF-LC-KJ; first compound 0.253 µM): 0.733
- relative viability (RERF-LC-KJ; first compound 0.8 µM): 0.768
- relative viability (RERF-LC-KJ; first compound 2.53 µM): 0.603
- relative viability (PC-14; first compound 0.08 µM): 0.833
- relative viability (PC-14; first compound 0.253 µM): 0.707
- relative viability (PC-14; first compound 0.8 µM): 0.671
- relative viability (PC-14; first compound 2.53 µM): 0.597
- relative viability (COR-L 105; first compound 0.08 µM): 0.43
- relative viability (COR-L 105; first compound 0.253 µM): 0.433
- relative viability (COR-L 105; first compound 0.8 µM): 0.4
- relative viability (COR-L 105; first compound 2.53 µM): 0.414
- relative viability (NCI-H2023; first compound 0.08 µM): 0.625
- relative viability (NCI-H2023; first compound 0.253 µM): 0.365
- relative viability (NCI-H2023; first compound 0.8 µM): 0.473
- relative viability (NCI-H2023; first compound 2.53 µM): 0.407
- relative viability (NCI-H2009; first compound 0.08 µM): 0.287
- relative viability (NCI-H2009; first compound 0.253 µM): 0.281
- relative viability (NCI-H2009; first compound 0.8 µM): 0.19
- relative viability (NCI-H2009; first compound 2.53 µM): 0.217
- relative viability (CAL-12T; first compound 0.08 µM): 0.346
- relative viability (CAL-12T; first compound 0.253 µM): 0.257
- relative viability (CAL-12T; first compound 0.8 µM): 0.272
- relative viability (CAL-12T; first compound 2.53 µM): 0.223
- relative viability (H3255; first compound 0.08 µM): 0.674
- relative viability (H3255; first compound 0.253 µM): 0.528
- relative viability (H3255; first compound 0.8 µM): 0.62
- relative viability (H3255; first compound 2.53 µM): 0.425
- relative viability (SW 900; first compound 0.253 µM): 0.579
- relative viability (SW 900; first compound 0.8 µM): 0.955
- relative viability (SW 900; first compound 2.53 µM): 0.495
- relative viability (NCI-H596; first compound 0.08 µM): 0.974
- relative viability (NCI-H596; first compound 0.253 µM): 0.775
- relative viability (NCI-H596; first compound 0.8 µM): 0.75
- relative viability (NCI-H596; first compound 2.53 µM): 0.657
- relative viability (NCI-H2087; first compound 0.08 µM): 0.198
- relative viability (NCI-H2087; first compound 0.253 µM): 0.168
- relative viability (NCI-H2087; first compound 0.8 µM): 0.215
- relative viability (NCI-H2087; first compound 2.53 µM): 0.147
